Experimental findings from patent US20260193228A1, “TRIAZINONE DERIVATIVES AS NLRP3 INHIBITORS” (Hoffmann-La Roche Inc., priority 2022, published 2026) are described below.

Holding throughout (type): cell-based
For data set [1], the target named is T1, hERG cardiac potassium channel (Homo sapiens, UniProt Q12809).
T1 construct: host or cells: CHO crelox hERG cell line (Chinese hamster)
The experiment in a line: hERG screening assay (automated patch clamp, CHO crelox hERG cells). The conditions noted are these: CHO crelox hERG cells (CHO cells that express hERG), whole-cell patch clamp, 35-37° C. An excerpt:
In the drug development process of small molecules, one of the most frequent adverse side effects, leading to the failure of drugs, is the cardiac arrhythmias. Such failure is often related to the capacity of the drug to inhibit the human ether-a-go-go-related gene (hERG) cardiac potassium channel. Having no or low inhibition of the hERG cardiac potassium channel is therefore considered as beneficial.
The CHO crelox hERG cell line (ATCC reference Nr. PTA-6812, female Chinese hamster cells) was generated and validated at Roche. Ready-to-use frozen instant CHO-hERG cells were cryopreserved at Evotec (Germany) and used directly in the experiments.
The extracellular solution contains (in mM): NaCl 150; KCl 4; CaCl2 1; MgCl2 1; HEPES 10; pH 7.2-7.4 with NaOH, osmolarity 290-330 mOsm. […]
The effects of a compound on hERG K+-currents parameters will be evaluated at 2 concentrations in at least 4 cells.
The hERG test is performed using automated patch clamp system SynchroPatch® 384 (Nanion Technologies GmbH, Germany). K+ currents are measured with the patch-voltage-clamp technique in the whole-cell configuration at 35-37° C. […]
The amplitudes of IKhERG were recorded in each concentration of drug and they were compared to the vehicle control values (taken as 100%) to define fractional blocks. […]
Background: The hERG channel carries a current that helps repolarise heart muscle cells.

Data set [2] deals with T2, NLRP3 (Homo sapiens, UniProt Q96P20). The experiment in a line: Human whole blood IL-1β release assay. The settings on record: 1 μg/ml LPS, nigericin 10 μM, IL-1β AlphaLisa. As to the method: For systemic delivery, the ability to inhibit NLRP3 when the compounds are present within the bloodstream is of great importance. For this reason, the NLRP3 inhibitory activity of a number of compounds in human whole blood was investigated in accordance with the following protocol.
Human whole blood in Li-heparin tubes was obtained from healthy donors from a volunteer donor panel. • 1. Plate out 80 μl of whole blood containing 1 μg/ml of LPS in 96-well, clear bottom cell culture plate (Corning #3585) • 2. Add 10 μl compound (8 points half-log dilution with 10 μM top dose) or vehicle (DMSO 0.1% FAC) to the appropriate wells • 3. Incubate for 3 hours at 37° C., 5% CO2 • 4. Add 10 μl nigericin (Sigma #N7143) (10 μM FAC) to all wells • 5. Incubate for 1 hr at 37° C., 5% CO2 • 6. At the end of the incubation period, spin plates at 300×g for 5 mins to pellet cells and remove 20 μl of supernatant and add to 96-well v-bottom plates for IL-1β analysis (note: these plates containing the supernatants can be stored at −80° C. to be analysed at a later date) • 7. IL-1β was measured according to the manufacturer protocol (Perkin Elmer-AlphaLisa IL-1 Kit AL220F-5000) • 8. IC50 data is fitted to a non-linear regression equation (log inhibitor vs response-variable slope 4-parameters)

Data set [3] has as its target T2, NLRP3. The experiment in a line: THP-1 cells pyroptosis assay. The settings on record: 1.0 μg/ml LPS, nigericin 5 μM, resazurin readout. The arrangement: Seed THP-1 cells (25,000 cells/well) containing 1.0 μg/ml LPS; host or cells: THP-1 cells. As to the method: THP-1 cells (ATCC #TIB-202) were grown in RPMI containing L-glutamine (Gibco #11835) supplemented with 1 mM sodium pyruvate (Sigma #S8636) and penicillin (100 units/ml)/streptomycin (0.1 mg/ml) (Sigma #P4333) in 10% Fetal Bovine Serum (FBS) (Sigma #F0804). The cells were routinely passaged and grown to confluency (~10^6 cells/ml). On the day of the experiment, THP-1 cells were harvested and resuspended into RPMI medium (without FBS). The cells were then counted and viability (>90%) checked by Trypan blue (Sigma #T8154). Appropriate dilutions were made to give a concentration of 625,000 cells/ml. To this diluted cell solution was added LPS (Sigma #L4524) to give a […] Final Assay Concentration (FAC). 40 μl of the final preparation was aliquoted into each well of a 96-well plate. The plate thus prepared was used for compound screening.
The following method step-by-step assay was followed for compound screening. • 1. Seed THP-1 cells (25,000 cells/well) containing 1.0 μg/ml LPS in 40 μl of RPMI medium (without FBS) in 96-well, black walled, clear bottom cell culture plates coated with poly-D-lysine (VWR #734-0317) • 2. Add 5 μl compound (8 points half-log dilution, with 10 μM top dose) or vehicle (DMSO 0.1% FAC) to the appropriate wells • 3. Incubate for 3 hours at 37° C., 5% CO2 • 4. Add 5 μl nigericin (Sigma #N7143) (FAC 5 μM) to all wells • 5. Incubate for 1 hr at 37° C., 5% CO2 • 6. At the end of the incubation period, spin plates at 300×g for 3 mins and remove supernatant • 7. Then add 50 μl of resazurin (Sigma #R7017) (FAC 100 μM resazurin in RPMI medium without FBS) and incubate plates for a further 1-2 hours at 37° C. and 5% CO2 • 8. Plates were read in an Envision reader at Ex 560 nm and Em 590 nm • 9. IC50 data is fitted to a non-linear regression equation (log inhibitor vs response-variable slope 4-parameters)

T2 sequence (Q96P20 whole entry): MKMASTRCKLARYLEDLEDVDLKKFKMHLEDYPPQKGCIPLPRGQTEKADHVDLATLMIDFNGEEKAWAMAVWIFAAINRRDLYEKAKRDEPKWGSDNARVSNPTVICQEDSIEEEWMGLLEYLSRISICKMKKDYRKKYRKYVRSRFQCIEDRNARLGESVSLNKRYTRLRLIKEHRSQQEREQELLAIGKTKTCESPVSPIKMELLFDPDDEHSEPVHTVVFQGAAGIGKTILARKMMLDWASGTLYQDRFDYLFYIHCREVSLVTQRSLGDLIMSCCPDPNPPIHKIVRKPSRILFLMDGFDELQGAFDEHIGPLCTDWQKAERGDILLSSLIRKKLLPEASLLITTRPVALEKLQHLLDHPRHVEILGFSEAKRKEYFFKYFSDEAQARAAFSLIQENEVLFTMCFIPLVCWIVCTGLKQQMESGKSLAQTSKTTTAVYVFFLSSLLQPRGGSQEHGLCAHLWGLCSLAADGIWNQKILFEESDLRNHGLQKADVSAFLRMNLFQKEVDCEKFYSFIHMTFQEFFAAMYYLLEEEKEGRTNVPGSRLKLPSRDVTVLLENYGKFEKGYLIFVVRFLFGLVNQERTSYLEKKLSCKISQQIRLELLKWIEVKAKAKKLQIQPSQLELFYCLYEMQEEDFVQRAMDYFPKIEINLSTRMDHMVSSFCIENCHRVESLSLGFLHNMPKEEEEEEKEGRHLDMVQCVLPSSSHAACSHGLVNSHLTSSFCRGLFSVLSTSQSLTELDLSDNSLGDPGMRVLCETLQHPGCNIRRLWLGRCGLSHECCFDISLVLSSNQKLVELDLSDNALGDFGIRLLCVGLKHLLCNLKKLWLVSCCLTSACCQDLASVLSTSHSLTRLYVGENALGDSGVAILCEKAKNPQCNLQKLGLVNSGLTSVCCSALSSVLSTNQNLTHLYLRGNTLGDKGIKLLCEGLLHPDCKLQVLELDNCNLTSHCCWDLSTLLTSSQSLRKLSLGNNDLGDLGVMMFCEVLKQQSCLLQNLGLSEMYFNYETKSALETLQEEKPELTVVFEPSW
T1 sequence (Q12809 whole entry): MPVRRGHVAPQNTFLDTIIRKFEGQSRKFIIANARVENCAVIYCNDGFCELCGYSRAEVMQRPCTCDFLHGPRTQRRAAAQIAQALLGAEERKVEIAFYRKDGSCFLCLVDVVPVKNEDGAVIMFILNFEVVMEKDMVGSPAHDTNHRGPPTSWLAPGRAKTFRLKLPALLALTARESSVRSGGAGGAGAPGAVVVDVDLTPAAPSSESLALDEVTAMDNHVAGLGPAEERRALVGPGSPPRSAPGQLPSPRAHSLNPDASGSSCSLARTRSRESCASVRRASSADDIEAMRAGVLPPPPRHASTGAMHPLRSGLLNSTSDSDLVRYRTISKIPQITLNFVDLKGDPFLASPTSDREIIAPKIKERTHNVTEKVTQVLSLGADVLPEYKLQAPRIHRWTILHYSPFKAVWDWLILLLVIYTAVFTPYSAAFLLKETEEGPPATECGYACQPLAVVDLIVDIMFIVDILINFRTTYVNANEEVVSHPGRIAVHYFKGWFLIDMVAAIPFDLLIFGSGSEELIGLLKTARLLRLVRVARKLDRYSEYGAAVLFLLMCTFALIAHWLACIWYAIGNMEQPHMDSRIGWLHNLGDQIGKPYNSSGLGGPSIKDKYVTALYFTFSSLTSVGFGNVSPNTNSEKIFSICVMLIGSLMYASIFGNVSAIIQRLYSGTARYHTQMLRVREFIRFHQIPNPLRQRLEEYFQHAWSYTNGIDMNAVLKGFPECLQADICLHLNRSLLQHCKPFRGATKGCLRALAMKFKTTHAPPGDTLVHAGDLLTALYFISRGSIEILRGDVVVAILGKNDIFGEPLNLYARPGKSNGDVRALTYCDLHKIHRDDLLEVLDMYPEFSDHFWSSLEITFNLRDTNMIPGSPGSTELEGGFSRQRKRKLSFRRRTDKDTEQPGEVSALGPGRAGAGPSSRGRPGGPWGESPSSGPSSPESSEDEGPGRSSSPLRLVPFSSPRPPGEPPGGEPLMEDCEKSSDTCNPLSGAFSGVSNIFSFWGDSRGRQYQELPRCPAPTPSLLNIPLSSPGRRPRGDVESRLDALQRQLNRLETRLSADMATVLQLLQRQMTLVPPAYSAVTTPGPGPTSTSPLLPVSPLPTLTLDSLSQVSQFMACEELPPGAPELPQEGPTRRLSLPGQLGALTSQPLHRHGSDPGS

Broadly, the IC20 is the concentration needed for an effect of 20%. A high value points to weaker potency. Broadly, the IC50 is the concentration that inhibits the measured activity by half. The low end stands for higher potency, the high end for lower potency. On to `CCN1CCC[C@@H](Nc2nnc(-c3c(C)cc(C(F)(F)F)cc3O)c(=O)n2C)C1` [Example 2, 3-[[(3R)-1-ethyl-3-piperidyl]amino]-6-[2-hydroxy-6-methyl-4-(trifluoromethyl)phenyl]-4-methyl-1,2,4-triazin-5-one], for which the IC20 in data set [1] is > 10000 nM. Also, the figures for the IC50 in data set [2] and in data set [3] were 52 nM and 31.3 nM, respectively.

`CCN1CCC[C@@H](Nc2nnc(-c3c(C)cc(Cl)cc3O)c(=O)n2C)C1` [Example 6, 6-(4-Chloro-2-hydroxy-6-methyl-phenyl)-3-[[(3R)-1-ethyl-3-piperidyl]amino]-4-methyl-1,2,4-triazin-5-one]: the IC50 in data set [2] was 41 nM; in data set [3], 33 nM.

As to `Cc1cc2c(c(O)c1-c1nnc(N[C@@H]3CCCN(CCO)C3)n(C)c1=O)CCC2` [Example 4, 3-[[(3R)-1-(2-Hydroxyethyl)-3-piperidyl]amino]-6-(4-hydroxy-6-methyl-indan-5-yl)-4-methyl-1,2,4-triazin-5-one], 248 nM corresponded to half-maximal inhibition in data set [3] (IC50).

In data set [3], `CCN1CCC[C@@H](Nc2nnc(-c3ccc(C(F)(F)F)cc3O)c(=O)n2C)C1` [Example 1, 3-[[(3R)-1-Ethyl-3-piperidyl]amino]-6-[2-hydroxy-4-(trifluoromethyl)phenyl]-4-methyl-1,2,4-triazin-5-one; Formic Acid] came in with an IC50 of 616 nM. This IC50 lies about 2.5-fold higher than the previous one.

`CCN1CCC[C@@H](Nc2nnc(-c3c(C)cc4c(c3O)CCO4)c(=O)n2C)C1` [Example 5, 3-[[(3R)-1-Ethyl-3-piperidyl]amino]-6-(4-hydroxy-6-methyl-2,3-dihydrobenzofuran-5-yl)-4-methyl-1,2,4-triazin-5-one]: the IC50 was 33 nM in data set [2] and 39 nM in data set [3].

Regarding `CCN1CCC[C@@H](Nc2nnc(-c3c(C)cc4c(c3O)CCC4)c(=O)n2C)C1` [Example 3, 3-[[(3R)-1-Ethyl-3-piperidyl]amino]-6-(4-hydroxy-6-methyl-indan-5-yl)-4-methyl-1,2,4-triazin-5-one], the IC20 in data set [1] is > 10000 nM. The IC50 in data set [2] was 41 nM; in data set [3], 17 nM.
